According to US20170190671A1, “BIS(ARYL)CATECHOL DERIVATIVES AS HERBICIDES” (E I DU PONT DE NEMOURS AND COMPANY, priority 2014, published 2017):

How the values were obtained:
Format in all cases: in vivo
Conditions in all cases: scale 0 to 100
[1] = tested on: Italian ryegrass (Lolium multiflorum); assay: Test D preemergence
Text: (§1) Seeds of plant species selected from bluegrass (annual bluegrass, Poa annua), blackgrass (Alopecurus myosuroides), canarygrass (Phalaris minor), chickweed (common chickweed, Stellaria media), cutleaf geranium (Geranium dissectum), galium (catchweed bedstraw, Galium aparine), downy bromegrass (Bromus tectorum), field poppy (Papaver rhoeas), field violet (Viola arvensis), green foxtail (Setaria viridis), deadnettle (henbit deadnettle, Lamium amplexicaule), Italian ryegrass (Lolium multiflorum), kochia (Kochia scoparia), lambsquarters (Chenopodium album), oilseed rape (Brassica napus), pigweed (Amaranthus retroflexus), chamomile (scentless chamomile, Matricaria inodora), Russian thistle (Salsola kali), speedwell (bird's-eye speedwell, Veronica persica), spring barley (Hordeum vulgare), spring wheat (Triticum aestivum), wild buckwheat (Polygonum convolvulus), wild mustard (Sinapis arvensis), wild oat (Avenafatua), wild radish (Raphanus raphanistrum), windgrass (Apera spica-venti), winter barley (Hordeum vulgare), and winter wheat (Triticum aestivum) were planted into a silt loam soil and treated preemergence with test chemicals formulated in a non-phytotoxic solvent mixture which included a surfactant.
(§2) At the same time, these species were planted in pots containing Redi-Earth® planting medium (Scotts Company, 14111 Scottslawn Road, Marysville, Ohio 43041) comprising spaghnum peat moss, vermiculite, wetting agent and starter nutrients and treated with postemergence applications of the test chemicals formulated in the same manner. Plants ranged in height from 2 to 18 cm (1- to 4-leaf stage). Treated plants and controls were maintained in a controlled growth environment for 14 to 21 days after which time all species were compared to controls and visually evaluated. Plant response ratings, summarized in Table D, are based on a scale of 0 to 100 where 0 is no effect and 100 is complete control. A dash (-) response means no test result.

[2] = tested on: blackgrass (Alopecurus myosuroides); assay: Test D preemergence
Text: as §1, §2

[3] = tested on: bluegrass (annual bluegrass, Poa annua); assay: Test D preemergence
Text: as §1, §2

[4] = tested on: canarygrass (Phalaris minor); assay: Test D preemergence
Text: as §1, §2

[5] = tested on: chickweed (common chickweed, Stellaria media); assay: Test D preemergence
Text: as §1, §2

[6] = tested on: deadnettle (henbit deadnettle, Lamium amplexicaule); assay: Test D preemergence
Text: as §1, §2

[7] = tested on: downy bromegrass (Bromus tectorum); assay: Test D preemergence
Text: as §1, §2

[8] = tested on: field poppy (Papaver rhoeas); assay: Test D preemergence
Text: as §1, §2

[9] = tested on: galium (catchweed bedstraw, Galium aparine); assay: Test D preemergence
Text: as §1, §2

[10] = tested on: kochia (Kochia scoparia); assay: Test D preemergence
Text: as §1, §2

[11] = tested on: oilseed rape (Brassica napus); assay: Test D preemergence
Text: as §1, §2

[12] = tested on: pigweed (Amaranthus retroflexus); assay: Test D preemergence
Text: as §1, §2

[13] = tested on: speedwell (bird's-eye speedwell, Veronica persica); assay: Test D preemergence
Text: as §1, §2

[14] = tested on: spring barley (Hordeum vulgare); assay: Test D preemergence
Text: as §1, §2

[15] = tested on: spring wheat (Triticum aestivum); assay: Test D preemergence
Text: as §1, §2

[16] = tested on: wild buckwheat (Polygonum convolvulus); assay: Test D preemergence
Text: as §1, §2

[17] = tested on: wild mustard (Sinapis arvensis); assay: Test D preemergence
Text: as §1, §2

[18] = tested on: windgrass (Apera spica-venti); assay: Test D preemergence
Text: as §1, §2

[19] = tested on: winter barley (Hordeum vulgare); assay: Test D preemergence
Text: as §1, §2

[20] = tested on: canarygrass (Phalaris minor); assay: Test D postemergence
Outline: (§3)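 Assessment is visual, relative to untreated controls, 14 to 21 days after application, with 100 meaning complete control. Seeds in silt loam receive preemergence spray; seedlings at the 1- to 4-leaf stage receive postemergence spray.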

[21] = tested on: deadnettle (henbit deadnettle, Lamium amplexicaule); assay: Test D postemergence
Outline: as §3

Fc1cnc(Oc2c(Br)cccc2Oc2ncc(Cl)cn2)nc1 [Compound 22]
85: Plant response rating, Deadnettle ([6]; 62 g ai/ha) | Plant response rating, Speedwell ([13]; 16 g ai/ha) | Plant response rating, Buckwheat, Wild ([16]; 125 g ai/ha)
15: Plant response rating, Ryegrass, Italian ([1]; 31 g ai/ha) | Plant response rating, Bromegrass, Downy ([7]; 16 g ai/ha) | Plant response rating, Barley, Spring ([14]; 62 g ai/ha) | Plant response rating, Wheat, Spring ([15]; 62 g ai/ha) | Plant response rating, Buckwheat, Wild ([16]; 62 g ai/ha) | Plant response rating, Windgrass ([18]; 16 g ai/ha)
5: Plant response rating, Blackgrass ([2]; 16 g ai/ha) | Plant response rating, Barley, Spring ([14]; 31 g ai/ha) | Plant response rating, Wheat, Spring ([15]; 31 g ai/ha) | Plant response rating, Barley, Winter ([19]; 62 g ai/ha)
40: Plant response rating, Oilseed Rape ([11]; 31 g ai/ha) | Plant response rating, Barley, Winter ([19]; 125 g ai/ha)
100: Plant response rating, Chickweed ([5]; 62 g ai/ha) | Plant response rating, Chickweed ([5]; 125 g ai/ha) | Plant response rating, Deadnettle ([6]; 125 g ai/ha) | Plant response rating, Field Poppy ([8]; 62 g ai/ha) | Plant response rating, Field Poppy ([8]; 125 g ai/ha) | Plant response rating, Galium ([9]; 125 g ai/ha) | Plant response rating, Pigweed ([12]; 62 g ai/ha) | Plant response rating, Pigweed ([12]; 125 g ai/ha) | Plant response rating, Speedwell ([13]; 62 g ai/ha) | Plant response rating, Speedwell ([13]; 125 g ai/ha) | Plant response rating, Mustard, Wild ([17]; 62 g ai/ha) | Plant response rating, Mustard, Wild ([17]; 125 g ai/ha)
50: Plant response rating, Deadnettle ([21]; 16 g ai/ha) | Plant response rating, Deadnettle ([21]; 31 g ai/ha)
90: Plant response rating, Bluegrass ([3]; 125 g ai/ha) | Plant response rating, Oilseed Rape ([11]; 125 g ai/ha) | Plant response rating, Speedwell ([13]; 31 g ai/ha) | Plant response rating, Deadnettle ([21]; 125 g ai/ha)
75: Plant response rating, Galium ([9]; 62 g ai/ha) | Plant response rating, Pigweed ([12]; 16 g ai/ha)
10: Plant response rating, Ryegrass, Italian ([1]; 16 g ai/ha) | Plant response rating, Canarygrass ([4]; 16 g ai/ha) | Plant response rating, Chickweed ([5]; 16 g ai/ha) | Plant response rating, Kochia ([10]; 31 g ai/ha) | Plant response rating, Buckwheat, Wild ([16]; 16 g ai/ha) | Plant response rating, Buckwheat, Wild ([16]; 31 g ai/ha) | Plant response rating, Canarygrass ([20]; 16 g ai/ha) | Plant response rating, Canarygrass ([20]; 31 g ai/ha)
35: Plant response rating, Blackgrass ([2]; 62 g ai/ha) | Plant response rating, Canarygrass ([4]; 62 g ai/ha) | Plant response rating, Bromegrass, Downy ([7]; 125 g ai/ha) | Plant response rating, Wheat, Spring ([15]; 125 g ai/ha)
60: Plant response rating, Bluegrass ([3]; 62 g ai/ha) | Plant response rating, Deadnettle ([6]; 31 g ai/ha) | Plant response rating, Galium ([9]; 16 g ai/ha)
20: Plant response rating, Blackgrass ([2]; 31 g ai/ha) | Plant response rating, Bluegrass ([3]; 31 g ai/ha) | Plant response rating, Deadnettle ([6]; 16 g ai/ha) | Plant response rating, Kochia ([10]; 62 g ai/ha) | Plant response rating, Mustard, Wild ([17]; 16 g ai/ha) | Plant response rating, Windgrass ([18]; 31 g ai/ha) | Plant response rating, Canarygrass ([20]; 62 g ai/ha)
70: Plant response rating, Kochia ([10]; 125 g ai/ha) | Plant response rating, Oilseed Rape ([11]; 62 g ai/ha) | Plant response rating, Pigweed ([12]; 31 g ai/ha) | Plant response rating, Windgrass ([18]; 125 g ai/ha)
30: Plant response rating, Bromegrass, Downy ([7]; 62 g ai/ha) | Plant response rating, Oilseed Rape ([11]; 16 g ai/ha) | Plant response rating, Mustard, Wild ([17]; 31 g ai/ha)
25: Plant response rating, Ryegrass, Italian ([1]; 62 g ai/ha) | Plant response rating, Canarygrass ([4]; 31 g ai/ha) | Plant response rating, Chickweed ([5]; 31 g ai/ha) | Plant response rating, Bromegrass, Downy ([7]; 31 g ai/ha) | Plant response rating, Windgrass ([18]; 62 g ai/ha) | Plant response rating, Canarygrass ([20]; 125 g ai/ha)
65: Plant response rating, Ryegrass, Italian ([1]; 125 g ai/ha) | Plant response rating, Field Poppy ([8]; 16 g ai/ha) | Plant response rating, Galium ([9]; 31 g ai/ha) | Plant response rating, Barley, Spring ([14]; 125 g ai/ha) | Plant response rating, Deadnettle ([21]; 62 g ai/ha)
95: Plant response rating, Field Poppy ([8]; 31 g ai/ha)
0: Plant response rating, Bluegrass ([3]; 16 g ai/ha) | Plant response rating, Kochia ([10]; 16 g ai/ha) | Plant response rating, Barley, Spring ([14]; 16 g ai/ha) | Plant response rating, Wheat, Spring ([15]; 16 g ai/ha) | Plant response rating, Barley, Winter ([19]; 16 g ai/ha) | Plant response rating, Barley, Winter ([19]; 31 g ai/ha)
55: Plant response rating, Blackgrass ([2]; 125 g ai/ha) | Plant response rating, Canarygrass ([4]; 125 g ai/ha)
